# Reference: PMC12257509, “New Generation Modified Azole Antifungals against Multidrug-Resistant” (Journal of Medicinal Chemistry, 2025)
# Read-outs that look alike come from different tables or passages of the source.
# Molecular target: T1, CYP51 (CaCYP51), lanosterol 14α-demethylase (Candida albicans, UniProt P10613)
# T1 construct: gene ERG11; recombinant CaCYP51
# Test: CYP51 reconstitution assay with CPR and NADPH, GC-MS of demethylated sterols
# Format: biochemical
# T1 sequence (P10613 whole entry): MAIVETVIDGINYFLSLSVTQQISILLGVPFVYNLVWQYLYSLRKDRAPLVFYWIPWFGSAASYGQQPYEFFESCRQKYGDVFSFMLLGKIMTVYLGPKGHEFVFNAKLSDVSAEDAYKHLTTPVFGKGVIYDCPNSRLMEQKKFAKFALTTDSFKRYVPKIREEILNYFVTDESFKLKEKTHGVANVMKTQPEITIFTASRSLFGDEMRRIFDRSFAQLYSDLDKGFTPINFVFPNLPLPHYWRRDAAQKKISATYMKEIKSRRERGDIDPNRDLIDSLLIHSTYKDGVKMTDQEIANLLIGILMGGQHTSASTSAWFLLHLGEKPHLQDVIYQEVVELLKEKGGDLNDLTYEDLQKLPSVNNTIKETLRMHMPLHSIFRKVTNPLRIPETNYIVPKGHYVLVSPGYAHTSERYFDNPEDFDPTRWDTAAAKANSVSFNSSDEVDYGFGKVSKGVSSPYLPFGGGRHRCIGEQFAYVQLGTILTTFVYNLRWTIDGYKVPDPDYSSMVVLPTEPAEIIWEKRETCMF
SMILES,IC50 (read-out: IC50) [µM],IC50 [µM]
OC(Cn1cncn1)(Cn1cncn1)c1ccc(F)cc1F [fluconazole],~0.6,–
"OC(CN1CCC(Nc2ncc(F)cn2)CC1)(Cn1cncn1)c1ccc(F)cc1F (racemic) [compound 7, 2-(2,4-Difluorophenyl)-1-(4-((5-fluoropyrimidin-2-Yl)-amino)-piperidin-1-Yl)-3-(1h-1,2,4-triazol-1-Yl)-propan-2-Ol]",–,~0.4
